# Experimental data as given in patent publication US20230158158A1, “PYRAZOLO QUINAZOLINE DERIVATIVE COMPOUNDS INDUCING SELECTIVE DEGRADATION OF PLK1” (UPPTHERA, priority 2020, published 2023).
# Target: T1, PLK1 (Homo sapiens, UniProt P53350)
# T1 construct: endogenous in cells; host or cells: HeLa
# Assay: PLK1 protein degradation by western blotting in HeLa cells
# Type: cell-based
# Conditions: thymidine block and release, compound 100 nM, 6 hours, PLK1/GAPDH ratio, read-out: PLK1 protein degradability (Dmax)
# Experimental: The HeLa cell line was purchased from Korea Cell Line Bank (KCLB), Seoul, Korea. The passage in cell culture was maintained at P115 to P125.
# 2×10^5 cells were seeded for each well of a 12-well plate (SPL), and the cells were cultured in the culture medium in a total volume of 2 ml.
# The compounds of Examples were completely dissolved in DMSO and used in the experiment, and thymidine was completely dissolved in DW and used in the experiment. For thymidine block, the products were treated with 2 mM of thymidine (Sigma-Aldrich Cat. No. T9250-5G) and then incubated for 24 hours.
# For release and chemical treatment, the medium was suctioned and washed 3 times with 1×PBS. Complete media was added, followed by incubation for 4 hours in a CO2 incubator. Each compound was treated according to the concentration of 100 nM and then incubated for 6 hours again.
# For SDS-PAGE and Western blotting, 1×RIPA lysis buffer (Rockland, Cat. No. MB-030-0050; Lot no. 39751), 100× Protease Inhibitor Cocktail (Quartett, Cat. No. PPI1015; Lot no. PC050038424), Pierce ? BCA protein assay kit (ThermoScientific, Cat. No. 23225; Lot no. UC276876), albumin standard (ThermoScientific, Cat. No. 23209; Lot no. UB269561), 4-15% Mini-PROTEAN TGX stain-free gel (Bio-rad, Cat. No. 4568085; Lot no. L007041B), 10× Tris/Glycine/SDS buffer (Bio-rad, Cat. No. 1610732; Lot no. 10000044375B); 10×TBS (Bio-rad, Cat. No. 1706435; Lot no. 1000045140B), 10% Tween 20 (Cat. No. 1610781; Lot no. L004152B), Color protein standard broad range (NEB, Cat. No. P7719S; Lot no. 10040349), 4× Laemmli sample buffer (Bio-rad, Cat. No. 1610747; Lot no. L004133B), β-mercaptoethanol (Sigma-Aldrich, Cat. No. M3148; Lot no. 60-24-2), SuperBlock ? T20 (TBS) blocking buffer (ThermoScientific, Cat. No. 37536; Lot no. UC282578), 1M sodium azide solution (Sigma-Aldrich, Cat. No. 08591-1 mL-F; Lot no. BCBV4989), α-Rabbit pAb to Ms IgG (abcam, Cat. No. ab97046; Lot no. GR3252115-1), α-Goat pAb to Rb IgG (CST, Cat. No. 7074S; Lot no. 28), α-GAPDH (abeam, Cat. No. ab8245; Lot no. GR3275542-2), α-Plk1 (CST, Cat. No. 208G4), α-BRD4 (CST, Cat. No. 13440S), ECL ? Prime western blotting reagents (GE Healthcare, Cat. No. RPN2232; Lot no. 17001655), Ponceau S solution (Sigma-Aldrich, Cat. No. P7170; Lot no. SLBV4112), Difco ? […]
# Then, a standard curve was obtained using the BCA assay, and the protein mass in the lysate was quantified by substituting the curve equation. The mixture was incubated at 37° C. for 30 minutes using 20 μL of standard or sample solution, and 200 μL of BCA or Bradford solution, and measured at 562 nm absorbance. Samples were prepared by adding 4× sample buffer so that the quantity of protein added to each well was 15 μg. […]
# T1 sequence (P53350 whole entry): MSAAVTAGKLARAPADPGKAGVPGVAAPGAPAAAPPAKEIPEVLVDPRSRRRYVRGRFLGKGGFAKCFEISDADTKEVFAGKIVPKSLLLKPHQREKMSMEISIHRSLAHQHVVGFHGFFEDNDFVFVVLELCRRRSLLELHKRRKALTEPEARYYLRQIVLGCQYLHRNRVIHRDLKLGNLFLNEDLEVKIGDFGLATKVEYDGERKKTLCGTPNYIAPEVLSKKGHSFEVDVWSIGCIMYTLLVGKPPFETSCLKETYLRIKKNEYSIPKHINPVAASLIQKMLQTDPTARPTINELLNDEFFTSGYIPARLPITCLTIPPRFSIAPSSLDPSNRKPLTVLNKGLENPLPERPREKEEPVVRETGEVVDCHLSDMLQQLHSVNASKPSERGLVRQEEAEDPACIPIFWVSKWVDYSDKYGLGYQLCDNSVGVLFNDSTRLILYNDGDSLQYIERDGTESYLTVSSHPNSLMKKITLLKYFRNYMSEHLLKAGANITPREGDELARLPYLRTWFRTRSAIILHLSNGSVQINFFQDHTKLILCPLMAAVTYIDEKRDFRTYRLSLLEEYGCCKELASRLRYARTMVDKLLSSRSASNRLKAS
row,Compound,Dmax at 0.1 µM [%]
1,"COc1c(Nc2ncc3c(n2)-c2c(c(C(N)=O)nn2C)CC3)cc(N2CCN(C)CC2)cc1C(=O)NCCOCCOCCNc1cccc2c1C(=O)N(C1CCC(=O)NC1=O)C2=O (stereo not shown) [Compound 2, 8-((3-((2-(2-(2-((2-(2,6-dioxopiperidin-3-yl)-1,3-dioxoisoindolin-4-yl)amino)ethoxy)ethoxy)ethyl)carbamoyl)-2-methoxy-5-(4-methylpiperazin-1-yl)phenyl)amino)-1-methyl-4,5-dihydro-1H-pyrazolo[4,3-h]quinazoline-3-carboxamide]",≥ 60
2,"COc1c(Nc2ncc3c(n2)-c2c(c(C(N)=O)nn2C)CC3)cc(N2CCN(C)CC2)cc1C(=O)NCCOCCOCCOCCNc1cccc2c1C(=O)N(C1CCC(=O)NC1=O)C2=O (stereo not shown) [Compound 3, 8-((3-((2-(2-(2-(2-((2-(2,6-dioxopiperidin-3-yl)-1,3-dioxoisoindolin-4-yl)amino)ethoxy)ethoxy)ethoxy)ethyl)carbamoyl)-2-methoxy-5-(4-methylpiperazin-1-yl)phenyl)amino)-1-methyl-4,5-dihydro-1H-pyrazolo[4,3-h]quinazoline-3-carboxamide]",≥ 60
3,"Cn1nc(C(N)=O)c2c1-c1nc(Nc3cc(N4CCN(CCOCCOCCOCCOCCNc5cccc6c5C(=O)N(C5CCC(=O)NC5=O)C6=O)CC4)ccc3OC(F)(F)F)ncc1CC2 (stereo not shown) [Compound 7, 8-((5-(4-(14-((2-(2,6-dioxopiperidin-3-yl)-1,3-dioxoisoindolin-4-yl)amino)-3,6,9,12-tetraoxatetradecyl)piperazin-1-yl)-2-(trifluoromethoxy)phenyl)amino)-1-methyl-4,5-dihydro-1H-pyrazolo[4,3-h]quinazoline-3-carboxamide]",≥ 60
4,"COc1c(Nc2ncc3c(n2)-c2c(c(C(N)=O)nn2C)CC3)cc(N2CCN(C)CC2)cc1C(=O)NCCOCCOCC(=O)N[C@H](C(=O)N1C[C@H](O)C[C@H]1C(=O)NCc1ccc(-c2scnc2C)cc1)C(C)(C)C [Compound 9, 8-((3-((2-(2-(2-(((S)-1-((2S,4R)-4-hydroxy-2-((4-(4-methylthiazol-5-yl)benzyl)carbamoyl)pyrrolidin-1-yl)-3,3-dimethyl-1-oxobutan-2-yl)amino)-2-oxoethoxy)ethoxy)ethyl)carbamoyl)-2-methoxy-5-(4-methylpiperazin-1-yl)phenyl)amino)-1-methyl-4,5-dihydro-1H-pyrazolo[4,3-h]quinazoline-3-carboxamide]",≥ 60
